Experimental data: patent US5891882A, “Benzopyranopyrrole and benzopyranopyridine α-1 adenergic compounds” (priority 1997, dated 1999)
Counter-ions that a name gives are not always drawn. Like-named read-outs stand apart in the source and are kept apart here.

How the values were obtained:
[1] = target: T1, α-1A adrenoreceptor (rat submaxillary gland) (Rattus norvegicus, UniProt P43140); test: In vitro [3H]-prazosin radioligand binding, pharmacologically defined α-1A adrenoreceptor (rat submaxillary gland)
T1 construct: Rat submaxillary glands were used for α-1A adrenoreceptors; from tissue; host or cells: rat submaxillary gland membranes
T1 sequence (P43140 1-466): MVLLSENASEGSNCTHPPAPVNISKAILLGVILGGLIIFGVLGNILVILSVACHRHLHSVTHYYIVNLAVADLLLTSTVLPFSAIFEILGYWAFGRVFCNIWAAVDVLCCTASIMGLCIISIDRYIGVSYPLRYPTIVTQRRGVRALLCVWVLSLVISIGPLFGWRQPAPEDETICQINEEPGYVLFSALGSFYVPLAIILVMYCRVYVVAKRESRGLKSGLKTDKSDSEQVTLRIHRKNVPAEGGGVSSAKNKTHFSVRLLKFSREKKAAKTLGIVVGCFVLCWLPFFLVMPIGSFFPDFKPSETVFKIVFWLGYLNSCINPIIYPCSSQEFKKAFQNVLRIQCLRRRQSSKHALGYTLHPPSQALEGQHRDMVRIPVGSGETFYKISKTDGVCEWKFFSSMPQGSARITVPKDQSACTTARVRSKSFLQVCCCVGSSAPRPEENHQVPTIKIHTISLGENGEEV
Description: Additionally, binding affinity against the pharmacologically defined α-1A adrenoreceptor (rat submaxillary gland) was measured.
(§1) On the fifth day of culture, growth medium was removed from cells grown in roller bottles, and the cells were washed twice with PBS (Sigma, 120 mM NaCl, 2.7 mM KCl, 10 mM Na2 HPO4 --NaH2 PO4, pH=7.4). Cells were detached from the roller bottles by incubating for 15 minutes at 37° C. in a Tris-EDTA solution (10 mM Tris, 100 mM NaCl, 1 mM EDTA, pH=7.4). The cell suspension from each roller bottle was decanted into tared centrifuge tubes and kept on ice. An aliquot of each cell suspension was generally taken for cell counting. Cells were centrifuged at 3000×G for 5 min at 2°-4° C., washed with PBS and recentrifuged. The supernatant was decanted and the pellet weighed to determine the wet weight of cells. Cells were washed a final time in 40 vol 5 mM Tris-HCl, 5 mM EDTA, pH=7.7, and centrifuged at 40,000×G for 10 minutes. Cells were homogenized in 10 mL of 50 mM Tris-HCl, 5 mM EDTA (pH=7.4) and diluted to 40 mL/tube. Homogenates were centrifuged at 40,000×G for 10 minutes. The supernatant was decanted and the pellets rehomogenized in 50 mM Tris-HCl (pH=7.4) and centrifuged as before. The supernatant was decanted and the homogenate resuspended in 6.25 volumes (per gram wet weight) of 50 mM Tris-HCl and aliquots of the pooled homogenates frozen in liquid N2 and stored at -70° C. until the time of assay. Rat submaxillary glands were used for α-1A adrenoreceptors and were prepared essentially as described (Michel, A. D., Loury, D. N. and Whiting, R. L., Brit. J. Pharmacol. 98: 83-889 (1989)).
(§2) Receptor binding assays for α-1 adrenoreceptors were performed essentially as described by Greengrass and Bremner (Eur. J. Pharmacol. 55: 323-326 (1979)). […] Radioactivity was determined by standard liquid scintillation techniques. Data were analyzed as previously described (Hancock, A. A., Kyncl, J. J., Martin, Y. C. and DeBernardis, J. F., J Receptor Res. 8: 23-46 (1988)).

[2] = target: T2, α-1A adrenoreceptor (rat vas deferens) (Rattus norvegicus, UniProt P43140); test: Functional antagonism: inhibition of phenylephrine-induced contraction of rat vas deferens; type: cell-based
T2 construct: from tissue; host or cells: rat vas deferens
T2 sequence (P43140 1-466): T1 sequence (P43140 1-466)
From the text: Functional assays indicative of pharmacologically defined α-1 adrenoreceptors were used to further characterize compounds. Inhibition of phenylephrine (PE)-induced contraction of canine prostate smooth muscle can be correlated with α-1A adrenoreceptor activation. […] For each of these models, agonist dose response curves were repeated against increasing concentrations of test agent to derive a Schild plot [log ([…]) against log (molarity of test agent)] to determine the pA2.

[3] = target: T3, α-1b adrenoreceptor (hamster) (Mesocricetus auratus, UniProt P18841); test: In vitro [3H]-prazosin radioligand binding, cloned α-1b adrenoreceptor expressed in LTK cells
T3 construct: expressed in transfected cells; cDNA from TULCO; membranes
T3 sequence (P18841 1-515): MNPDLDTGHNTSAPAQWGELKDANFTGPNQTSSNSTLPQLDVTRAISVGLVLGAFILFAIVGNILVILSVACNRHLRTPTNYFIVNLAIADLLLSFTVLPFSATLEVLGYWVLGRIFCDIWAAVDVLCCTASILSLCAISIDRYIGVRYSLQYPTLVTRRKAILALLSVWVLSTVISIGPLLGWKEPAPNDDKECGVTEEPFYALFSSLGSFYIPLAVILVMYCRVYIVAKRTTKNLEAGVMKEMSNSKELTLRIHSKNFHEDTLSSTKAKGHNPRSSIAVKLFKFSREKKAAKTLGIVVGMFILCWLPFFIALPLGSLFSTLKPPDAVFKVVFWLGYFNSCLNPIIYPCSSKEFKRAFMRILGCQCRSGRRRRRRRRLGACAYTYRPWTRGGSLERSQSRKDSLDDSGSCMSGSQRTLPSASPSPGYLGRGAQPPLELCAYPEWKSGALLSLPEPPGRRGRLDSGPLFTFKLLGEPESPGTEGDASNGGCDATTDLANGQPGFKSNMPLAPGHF
From the text: The cDNA clones encoding the α-1 adrenoreceptors (α-1a, α-1b, and α-1d) were obtained from TULCO (Triangle Universities Licensing Consortium, Research Triangle Park, N.C.) and inserted into the eukaryotic expression vector SnaB30. In this vector, expression of the adrenoreceptor gene is under the transcriptional control of an SV40 early promoter. Positive drug selection is provided by a neomycin-resistance gene. Mouse fibroblast cells (LTK) were transfected with the α1 expression plasmids and grown in Dulbecco's modified Eagle's medium (DMEM) containing 10% fetal calf serum and […]. Stable G418-resistant parental lines were generated, with successful expression of adrenoreceptor protein monitored using radioligand binding techniques. Stable single cell clones derived from the parental lines were screened in adrenoreceptor binding assays to identify clones having high adrenoreceptor density. Roller bottle cultures of the cloned lines were used to provide cell membranes for subsequent adrenoreceptor binding characterization studies. A cell line containing the SnaB30 vector expressing the human erythropoietin gene served as a negative control.
For adrenoreceptor binding assays, large scale membrane preparations were utilized in which 6 million cells were seeded into small (450 cm^2) Corning tissue culture roller bottles. 200 mL of DMEM containing 10% fetal calf serum and 300 μM G418 were added to each roller bottle. A 95% air/5% CO2 gas mixture (sterile) was injected into each roller bottle prior to sealing. The bottles were then incubated at 37° C. on a roller rack for 5 days. Cells were re-fed with fresh medium after 3 days in culture.
as §1, §2

[4] = rat submaxillary gland, [3H]prazosin 0.2 nM, read-out: Radioligand Binding (Ki; nM) 1A (Rat)
[5] = cloned hamster α-1b in LTK cells, [3H]prazosin 0.2 nM, read-out: Radioligand Binding (Ki; nM) 1b (Hamster)

Row | SMILES | Ki [1] [nM] | Kb [2] [nM] | Ki [3] [nM] | Ki [1, 4] [nM] | Ki [3, 5] [nM] | In Vitro Characterization (pA2) Rat Vas ([2]; rat vas deferens, phenylephrine-induced contraction, Schild plot)
1 | COc1cccc2c1[C@@H]1CCN(CCCCn3c(=O)[nH]c4c(sc5ccccc54)c3=O)C[C@H]1CO2 (relative stereo) [Example 87, 3-[4-((±)-trans-10-Methoxy-1,3,4,4a,5,10b-hexahydro-2H-[1]-benzopyrano[3,4-c]pyrido-3-yl)butyl]-[1]-benzthieno[3,2-d]pyrimidine-2,4(1H,3H)-dione hydrochloride] | 0.371 | 2.14 | 2.86 | – | – | –
2 | COc1cccc2c1[C@@H]1CCN(CCCCn3c(=O)[nH]c4c(sc5cccnc54)c3=O)C[C@H]1CO2 (relative stereo) [Example 88, 3-[4-((±)-trans-10-Methoxy-1,3,4,4a,5,10b-hexahydro-2H-[1]-benzopyrano[3,4-c]pyrido-3-yl)butyl]-pyrido[2',3':4,5]thieno[3,2-d]pyrimidine-2,4(1H,3H)-dione hydrochloride] | 0.188 | 1.82 | 0.791 | – | – | –
3 | COc1cc2[nH]c(=O)n(CCN3CC[C@H]4c5c(OC)cccc5OC[C@@H]4C3)c(=O)c2cc1OC (relative stereo) [Example 91, 3-[2-((±)-trans-10-Methoxy-1,3,4,4a,5,10b-hexahydro-2H-[1]-benzopyrano[3,4-c]pyrido-3-yl)ethyl]-6,7-dimethoxy-quinazoline-2,4(1H,3H)-dione hydrochloride] | – | – | – | 0.102 | 1.46 | –
4 | COc1ccc2c(n1)sc1c(=O)n(CCCCN3C[C@@H]4COc5cccc(OC)c5[C@@H]4C3)c(=O)[nH]c12 [Example 33, hydrochloride] | – | – | – | 0.811 | 10.5 | 9.02
